Structures can show the parent of a compound that is named as a salt.
Molecular target: p45MEK (GST-MEK) (Homo sapiens, UniProt Q02750)
Test: Cascade assay for inhibitors of the MAP kinase pathway (in vitro)
Type: biochemical
Method: Incorporation of ^32P into myelin basic protein (MBP) was assayed in the presence of a glutathione S-transferase fusion protein containing p44MAP kinase (GST-MAPK) and a glutathione S-transferase fusion protein containing p45MEK (GST-MEK). The assay solution contained 20 mM HEPES, pH 7.4, 10 mM MgCl2, 1 mM MnCl2, 1 mM EGTA, 50 μM [γ-^32P]ATP, 10 μg GST-MEK, 0.5 μg GST-MAPK and 40 μg MBP in a final volume of 100 μL. […] Compounds were assessed at 10 μM for ability to inhibit incorporation of ^32P.
To ascertain whether compounds were inhibiting GST-MEK or GST MAPK, two additional protocols were employed. In the first protocol, compounds were added to tubes containing GST-MEK, followed by addition of GST-MAPK, MBP and [γ-^32P]ATP. In the second protocol, compounds were added to tubes containing both GST-MEK and GST-MAPK, followed by MBP and [γ-^32P]ATP.

Sequence of p45MEK (GST-MEK) (Q02750 whole entry): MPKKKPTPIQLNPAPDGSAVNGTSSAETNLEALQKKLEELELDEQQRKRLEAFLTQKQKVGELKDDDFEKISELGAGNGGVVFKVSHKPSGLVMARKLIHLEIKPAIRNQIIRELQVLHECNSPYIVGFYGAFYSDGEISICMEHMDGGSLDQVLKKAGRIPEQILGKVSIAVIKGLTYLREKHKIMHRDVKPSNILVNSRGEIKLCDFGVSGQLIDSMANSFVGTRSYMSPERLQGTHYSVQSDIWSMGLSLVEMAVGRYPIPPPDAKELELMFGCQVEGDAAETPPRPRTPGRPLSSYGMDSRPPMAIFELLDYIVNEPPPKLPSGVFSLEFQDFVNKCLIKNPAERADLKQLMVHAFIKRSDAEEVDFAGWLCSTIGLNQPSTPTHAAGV

| IC50 [nM] | SMILES |
| --- | --- |
| 55 | O=C(NOC1CCCCO1)c1ccc(F)c(F)c1Nc1ccc(I)cc1Cl (stereo not shown) [Example 90, 3,4-Difluoro-2-(2-chloro-4-iodo-phenylamino)-N-(tetrahydro-pyran-2-yloxy)-benzamide] |
| 47 | Cc1cc(I)ccc1Nc1c(C(=O)NOC2CCCCO2)cc(Br)c(F)c1F (stereo not shown) [Example 86, 5-Bromo-3,4-difluoro-2-(4-iodo-2-methyl-phenylamino)-N-(tetrahydro-pyran-2-yloxy)-benzamide] |
| 475 | CCCONC(=O)c1ccc(F)c(F)c1Nc1ccc(Br)cc1C [Example 44, 2-(4-Bromo-2-methyl-phenylamino)-3,4-difluoro-N-propoxy-benzamide] |
| 17 | Cc1cc(I)ccc1Nc1c(C(=O)NOCC#Cc2ccccc2)ccc(F)c1F [Example 32, 3,4-Difluoro-2-(4-iodo-2-methyl-phenylamino)-N-(3-phenyl-prop-2-ynyloxy)-benzamide] |
| 15 | C#CCONC(=O)c1ccc(F)c(F)c1Nc1ccc(I)cc1C [Example 71, 3,4-Difluoro-2-(4-iodo-2-methyl-phenylamino)-N-(prop-2-ynyloxy)-benzamide] |
| 16 | C=C(C)CONC(=O)c1ccc(F)c(F)c1Nc1ccc(I)cc1C [Example 66, 3,4-Difluoro-2-(4-iodo-2-methyl-phenylamino)-N-(2-methyl-allyloxy)-benzamide] |
| 26 | C#CC(C)ONC(=O)c1ccc(F)c(F)c1Nc1ccc(I)cc1C (stereo not shown) [Example 27, 3,4-Difluoro-2-(4-iodo-2-methyl-phenylamino)-N-(1-methyl-prop-2-ynyloxy)-benzamide] |
| 137 | Cc1cc(Br)ccc1Nc1c(C(=O)NOCc2ccoc2)ccc(F)c1F [Example 22, 2-(4-Bromo-2-methyl-phenylamino)-3,4-difluoro-N-(furan-3-ylmethoxy)-benzamide] |
| 28 | CCONC(=O)c1ccc(F)c(F)c1Nc1ccc(I)cc1C [Example 40, N-Ethoxy-3,4-difluoro-2-(4-iodo-2-methyl-phenylamino)-benzamide] |
| 236 | CCONC(=O)c1ccc(F)c(F)c1Nc1ccc(Br)cc1C [Example 41, 2-(4-Bromo-2-methyl-phenylamino)-N-ethoxy-3,4-difluoro-benzamide] |
| 8 | Cc1cc(I)ccc1Nc1c(C(=O)NOCC2CC2)cc(F)c(F)c1F [Example 79, N-Cyclopropylmethoxy-3,4,5-trifluoro-2-(4-iodo-2-methyl-phenylamino)-benzamide] |
| 56 | Cc1cc(I)ccc1Nc1c(C(=O)NOCC#Cc2ccccc2F)ccc(F)c1F [Example 36, 3,4-Difluoro-N-[3-(2-fluoro-phenyl)-prop-2-ynyloxy]-2-(4-iodo-2-methyl-phenylamino)-benzamide] |
| 14 | Cc1cc(I)ccc1Nc1c(C(=O)NOCC2CC2)ccc(F)c1F [Example 56, N-Cyclopropylmethoxy-3,4-difluoro-2-(4-iodo-2-methyl-phenylamino)-benzamide] |
| 14 | Cc1cc(I)ccc1Nc1c(C(=O)NOCc2ccoc2)ccc(F)c1F [Example 21, 3,4-Difluoro-N-(furan-3-ylmethoxy)-2-(4-iodo-2-methyl-phenylamino)-benzamide] |
| 87 | Cc1cc(I)ccc1Nc1c(C(=O)NOC(C)C)ccc(F)c1F [Example 47, 3,4-Difluoro-2-(4-iodo-2-methyl-phenylamino)-N-isopropoxy-benzamide] |
| 61 | CONC(=O)c1ccc(F)c(F)c1Nc1ccc(I)cc1C [Example 14, 3,4-Difluoro-2-(4-iodo-2-methyl-phenylamino)-N-methoxy-benzamide] |
| 31 | Cc1cc(I)ccc1Nc1c(C(=O)NOC2CCCCO2)ccc(F)c1F (stereo not shown) [Example 83, 3,4-Difluoro-2-(4-iodo-2-methyl-phenylamino)-N-(tetrahydro-pyran-2-yloxy)-benzamide] |
| 38 | O=C(NOC1CCCCO1)c1cc(Br)c(F)c(F)c1Nc1ccc(I)cc1Cl (stereo not shown) [Example 94, 5-Bromo-2-(2-chloro-4-iodo-phenylamino)-3,4-difluoro-N-(tetrahydro-pyran-2-yloxy)-benzamide] |

Further lines, the molecule ahead of its results:

| SMILES | IC50 [nM] |
| --- | --- |
| Cc1cc(I)ccc1Nc1ccc(Cl)cc1C(=O)NOC1CCCCO1 (stereo not shown) [Example 6, 5-Chloro-2-(4-iodo-2-methyl-phenylamino)-N-(terahydropyran-2-yloxy)benzamide] | 345 |
| Cc1cc(I)ccc1Nc1cc(F)ccc1C(=O)NOCc1ccccc1 [Example 12, 4-Fluoro-2-(4-iodo-2-methyl-phenylamino)-N-phenylmethoxy-benzamide] | 826 |
| O=C(NO)c1ccc(F)cc1Nc1ccc(I)cc1Cl [Example 87, 2-(2-Chloro-4-iodo-phenylamino)-4-fluoro-N-hydroxy-benzamide (HCl salt)] | < 1 |
| CCCONC(=O)c1ccc(F)cc1Nc1ccc(I)cc1C [Example 42, 4-Fluoro-2-(4-iodo-2-methyl-phenylamino)-N-propoxy-benzamide] | 87 |
| C#CCONC(=O)c1ccc(F)cc1Nc1ccc(I)cc1C [Example 25, 4-Fluoro-2-(4-iodo-2-methyl-phenylamino)-N-(prop-2-ynyloxy)-benzamide] | 102 |
| C#CCCONC(=O)c1cc(Br)c(F)c(F)c1Nc1ccc(I)cc1C [Example 31, 5-Bromo-N-(but-3-ynyloxy)-3,4-difluoro-2-(4-iodo-2-methyl-phenylamino)-benzamide] | 45 |
| Cc1cc(Br)ccc1Nc1c(C(=O)NOCc2cccs2)ccc(F)c1F [Example 64, 2-(4-Bromo-2-methyl-phenylamino)-3,4-difluoro-N-(thiophen-2-ylmethoxy)-benzamide] | 279 |
| Cc1cc(Br)ccc1Nc1c(C(=O)NOCC#Cc2ccccc2)ccc(F)c1F [Example 33, 3,4-Difluoro-2-(4-bromo-2-methyl-phenylamino)-N-(3-phenyl-prop-2-ynyloxy)-benzamide] | 374 |
| CONC(=O)c1ccc(F)cc1Nc1ccc(I)cc1C [Example 13, 4-Fluoro-2-(4-iodo-2-methyl-phenylamino)-N-methoxy-benzamide] | 243 |
| Cc1cc(I)ccc1Nc1c(C(=O)NOCCN2CCCCC2)cc(Br)c(F)c1F [Example 85, 3,4-Difluoro-5-bromo-2-(4-iodo-2-methyl-phenylamino)-N-(2-piperidin-1-yl-ethoxy)-benzamide] | 24 |
| Cc1cc(I)ccc1Nc1c(C(=O)NOC(C)C)cc(Br)c(F)c1F [Example 49, 5-Bromo-3,4-difluoro-2-(4-iodo-2-methyl-phenylamino)-N-isopropoxy-benzamide] | 85 |
| Cc1cc(I)ccc1Nc1cc(F)ccc1C(=O)NOCc1ccoc1 [Example 20, 4-Fluoro-N-(furan-3-ylmethoxy)-2-(4-iodo-2-methyl-phenylamino)-benzamide] | 42 |
| CC=CCONC(=O)c1ccc(F)cc1Nc1ccc(I)cc1C [Example 68, N-(But-2-enyloxy)-4-fluoro-2-(4-iodo-2-methyl-phenylamino)-benzamide] | 119 |
| Cc1cc(I)ccc1Nc1c(C(=O)NOCC(C)N(C)C)cc(Br)c(F)c1F (stereo not shown) [Example 92, 5-Bromo-N-(2-dimethylamino-propoxy)-3,4-difluoro-2-(4-iodo-2-methyl-phenylamino)-benzamide] | 33 |
| CC(C#Cc1ccccc1)=CCONC(=O)c1ccc(F)c(F)c1Nc1ccc(Br)cc1C [Example 39, 2-(4-Bromo-2-methyl-phenylamino)-3,4-difluoro-N-(3-methyl-5-phenyl-pent-2-en-4-ynyloxy)-benzamide] | 147 |
| Cc1cc(I)ccc1Nc1c(C(=O)NOCC#Cc2cccc(F)c2)ccc(F)c1F [Example 34, 3,4-Difluoro-N-[3-(3-fluoro-phenyl)-prop-2-ynyloxy]-2-(4-iodo-2-methyl-phenylamino)-benzamide] | 113 |
| CN(C)CCONC(=O)c1cc(Br)c(F)c(F)c1Nc1ccc(I)cc1Cl [Example 91, 5-Bromo-2-(2-chloro-4-iodo-phenylamino)-N-(2-dimethylamino-ethoxy)-3,4-difluoro-benzamide monohydrochloride salt] | 20 |
| Cc1cc(I)ccc1Nc1ccc(Cl)cc1C(=O)N(C)O [Example 5, 5-Chloro-N-hydroxy-2-(4-iodo-2-methyl-phenylamino)-N-methyl-benzamide] | 566 |
| CONC(=O)c1cc(Cl)ccc1Nc1ccc(I)cc1C [Example 7, 5-Chloro-2-(4-iodo-2-methyl-phenylamino)-N-methoxybenzamide] | 221 |
| Cc1cc(I)ccc1Nc1c(C(=O)NOCC#Cc2ccccc2F)cc(Br)c(F)c1F [Example 37, 5-Bromo-3,4-difluoro-N-[3-(2-fluoro-phenyl)-prop-2-ynyloxy]-2-(4-iodo-2-methyl-phenylamino)-benzamide] | 2 |
| Cc1cc(F)ccc1Nc1cc(F)ccc1C(=O)NO [Example 8, 4-Fluoro-N-hydroxy-2-(4-fluoro-2-methyl-phenylamino)-benzamide] | 7130 |
| Cc1cc(I)ccc1Nc1cc(F)ccc1C(=O)N(C)O [Example 80, 4-Fluoro-N-hydroxy-2-(4-iodo-2-methyl-phenylamino)-N-methyl-benzamide] | 80 |
| Cc1cc(I)ccc1Nc1ccc(Cl)cc1C(=O)NO [Example 4, 5-Chloro-N-hydroxy-2-(4-iodo-2-methyl-phenylamino)-benzamide] | 23 |
| CCONC(=O)c1cc(Br)c(F)c(F)c1Nc1ccc(I)cc1C [Example 17, 5-Bromo-N-ethoxy-3,4-difluoro-2-(4-iodo-2-methyl-phenylamino)-benzamide] | 14 |
| Cc1cc(I)ccc1Nc1cc(F)ccc1C(=O)NOCc1cccs1 [Example 62, 4-Fluoro-2-(4-iodo-2-methyl-phenylamino)-N-(thiophen-2-ylmethoxy)-benzamide] | 86 |

Reference: US7169816B2, “4-bromo or 4-iodo phenylamino benzhydroxamic acid derivatives and their use as MEK inhibitors” (Warner-Lambert Company, priority 1997, dated 2007)
